Test results from patent US12150940B2, “WASp-protecting small molecules, compositions, methods and uses thereof in the treatment of innate and acquired immune-related disorders or conditions” (BAR ILAN UNIVERSITY, priority 2016, dated 2024).
Peptide text beside a SMILES is read from it. * marks the point of attachment. Cbz = O=C(OCc1ccccc1)*

How the values were obtained:
Format in all cases: cell-based, human
WASp = WASp expression in Meg-01 megakaryocyte cell line (western blot); conditions: Meg-01 cells, treated vs untreated
Description: Freshly-isolated platelets were stimulated with 10 μM of TRAP-6 for the indicated time points, followed by lysis. WIP (FIG. 7A) or WASp (FIG. 7B) were immunoprecipitated from the lysates and analyzed by western blot for co-immunoprecipitation, using anti-WASp, anti-WIP or anti-PKCθ antibodies. WASp immunoprecipitates were immunoblotted for WASp ubiquitylation using anti-ubiquitin (Ub) antibody (FIG. 7C). Ubiquitylated WASp appears as a smear of bands above the MW of 65 kDa with a prominent band at ˜81 kDa. […] Blots are representative of three independent experiments. Meg-01 megakaryocyte cell line was activated in the presence (+) or absence (−) of MG132, followed by lysis (FIG. 7E). WASp ubiquitylation was determined by co-immunoprecipitation analysis as in FIG. 7C. FIG. 7F illustrates Meg-01 cells that were transfected with PKCθ-specific siRNA (+) or non-specific (NS) siRNA (−). 24 h later, the cells were stimulated and lysed. PKCθ and WASp protein expression levels were analyzed by western blot with anti-PKCθ and anti-WASp antibodies, and with anti-GAPDH as loading control. Relative protein expression was determined by densitometric analysis and is presented below the corresponding lanes. […] Blots are representative of three independent experiments.
Human primary PBMCs were isolated from whole blood of healthy donors, as previously described (Barda-Saad et al, 2005). […]

[1] = system: WAS−/−/WASp R86C Jurkat T-cells; test: Lymphocyte migration on ICAM-1/SDF-1α, WAS−/−/WASp R86C cells
Description: (§1) WASp knockout Jurkat T-cell lines that express only exogenous YFP-WASp R86C (WAS^−/−/WASp R86C) or Y107C (WAS^−/−/WASp Y107C) were pretreated with SMC #34 in comparison to cells treated with the control. Cells that completely lack WASp expression (WAS^−/−) were also treated with the control. Cellular migration was tracked over a 20-min period on ICAM-1/SDF-1α-coated cover glasses, as described in Experimental procedures.
(§2) Approximately 1×10^5 lymphocytes were seeded over chambered coverslips (LabTek) pre-coated with 6 μg/ml ICAM-1 and 2 μg/ml SDF-1α. Cells were incubated at 37° C., 5% CO2 and DIC images were acquired with the Zeiss Observer Z1 inverted microscope every 5 s for 20 min under a 20× objective lens using Zen software. The random movement (Displacement and velocity) of the cells was automatically tracked and analyzed using TrackMate plugin of ImageJ software. An individual trace was assigned to each of the analyzed cells.

[2] = system: WAS−/−/WASp Y107C Jurkat T-cells; test: Lymphocyte migration on ICAM-1/SDF-1α, WAS−/−/WASp Y107C cells
Description: as §1, §2

Row | SMILES | WASp in whole cell lysates (W.C.L) (WASp) | migration ([1]; WAS−/−/WASp R86C cells, vs control) | mean cell displacement ([1]; WAS−/−/WASp R86C, 20 min, mean ± SE) | migration ([2]; WAS−/−/WASp Y107C cells, vs control) | mean cell displacement ([2]; WAS−/−/WASp Y107C, 20 min, mean ± SE)
1 | CC(C)C[C@@H](C=O)NC(=O)[C@H](CC(C)C)NC(=O)[C@H](CC(C)C)NC(=O)OCc1ccccc1 [MG132] (Cbz-Leu-Leu-Leu-aldehyde) | more WASp was detected |  |  |  | 
2 | CC1CCCC(C)N1C(=O)CSc1nnc(COc2cccc3cccnc23)o1 (centres unmarked) [SMC #34, 1-(2,6-dimethylpiperidin-1-yl)-2-[[5-(quinolin-8-yloxymethyl)-1,3,4-oxadiazol-2-yl]sulfanyl]ethanone] |  | significantly increased | 53.65±4.88 | significantly increased | 74.24±8.16
